Here are results for one compound from ChEMBL document CHEMBL4414679, “Discovery of 4,6-pyrimidinediamine derivatives as novel dual EGFR/FGFR inhibitors aimed EGFR/FGFR1-positive NSCLC” (Eur J Med Chem, 2020).

In data set [1] the target is Epidermal growth factor receptor (Homo sapiens, UniProt P00533). In words: Inhibition of N-terminal GST-tagged human EGFR (d746-750AA) expressed in baculovirus at 10 uM using FAM-labelled peptide as substrate pre-incubated for 10 mins followed by substrate addition by mobility shift assay relative to control.
The next data set has as its system NCI-H520. In words: Antiproliferative activity against human NCI-H520 cells assessed as inhibition of cell growth at 10 uM incubated for 48 hrs by MTT assay relative to control. The data set is classed as functional. The settings on record: NCI-H520, 48 h. (Tetrazolium dyes change colour on reduction, which living cells bring about.)
A further data set relates to HCC827. As to the kind of experiment: Antiproliferative activity against human HCC827 cells incubated for 48 hrs by MTT assay. The class given is functional, cell-based. To be noted: HCC827, 48 h.
Data set [2] relates to Epidermal growth factor receptor (Homo sapiens), P00533 [T790M]. As to the kind of experiment: Inhibition of GST-tagged human EGFR T790M mutant expressed in baculovirus at 10 uM using FAM-labelled peptide as substrate pre-incubated for 10 mins followed by substrate addition by mobility shift assay relative to control.
For data set [3], the system named is NCI-H226. In words: Induction of apoptosis in human NCI-H226 cells assessed as late apoptotic cells at 1 uM measured after 24 hrs by Annexin-V/propidium iodide staining-based flow cytometric analysis (reference value: 2.8%). The data set is classed as functional. For orientation: A flow cytometer gives signals particle by particle.
Data set [4] concerns NCI-H226. As to the kind of experiment: Induction of apoptosis in human NCI-H226 cells assessed as necrotic cells at 1 uM measured after 24 hrs by Annexin-V/propidium iodide staining-based flow cytometric analysis (reference value: 3%). The class given is functional.
Data set [5] in a line: Toxicity in BALB/c nude mouse xenografted with human HCC827GR cells assessed as body weight at 15 mg/kg, ip dosed measured every 2 days upto 24 days. The class given is organism-based. To be noted: in vivo. (Xenograft models place foreign cells or tissue in a host animal.)
For a further data set, the system named is Mus musculus. As to the kind of experiment: Down regulation of EGFR phosphorylation in BALB/c nude mouse xenografted with human HCC827GR cells at 15 mg/kg, ip dosed by western blot analysis. The class given is functional, organism-based.
Data set [6] can be described thus: Induction of apoptosis in gefitinib-insensitive human HCC827GR cells assessed as viable cells at 10 uM measured after 24 hrs by Annexin-V/propidium iodide staining-based flow cytometric analysis (reference value: 90.8%). The data set is classed as functional. The settings on record: read-out: Activity.
Data set [7] addresses Fibroblast growth factor receptor 4 (Homo sapiens) (UniProt P22455). As to the kind of experiment: Inhibition of N-terminal GST tagged human FGFR4 cytoplasmic domain (460 to 802 AA) expressed in baculovirus at 10 uM using FAM-labelled peptide as substrate pre-incubated for 10 mins followed by substrate addition by mobility shift assay relative to control.
Data set [8] addresses Mitogen-activated protein kinase 1 (Homo sapiens) (UniProt P28482). In words: Inhibition of full length N-terminal GST-tagged human ERK2 (1 to 360 AA) expressed in Escherichia coli at 10 uM using FAM-labelled peptide as substrate pre-incubated for 10 mins followed by substrate addition by mobility shift assay relative to control.
The target of data set [9] is Mitogen-activated protein kinase 9 (Homo sapiens) (UniProt P45984). In words: Inhibition of human recombinant full length His-tagged JNK2 expressed in baculovirus expression system at 10 uM using FAM-labelled peptide as substrate pre-incubated for 10 mins followed by substrate addition by mobility shift assay relative to control.
Data set [10] addresses Proto-oncogene tyrosine-protein kinase Src (Homo sapiens) (UniProt P12931). In words: Inhibition of full length N-terminal GST-tagged human SRC (1 to 536 AA) expressed in baculovirus at 10 uM using FAM-labelled peptide as substrate pre-incubated for 10 mins followed by substrate addition by mobility shift assay relative to control.

Activity calls are given as the source filed them. No cut-off for these calls is given here.

Chain of Fibroblast growth factor receptor 4 (Homo sapiens) (P22455 22-802 limits assumed): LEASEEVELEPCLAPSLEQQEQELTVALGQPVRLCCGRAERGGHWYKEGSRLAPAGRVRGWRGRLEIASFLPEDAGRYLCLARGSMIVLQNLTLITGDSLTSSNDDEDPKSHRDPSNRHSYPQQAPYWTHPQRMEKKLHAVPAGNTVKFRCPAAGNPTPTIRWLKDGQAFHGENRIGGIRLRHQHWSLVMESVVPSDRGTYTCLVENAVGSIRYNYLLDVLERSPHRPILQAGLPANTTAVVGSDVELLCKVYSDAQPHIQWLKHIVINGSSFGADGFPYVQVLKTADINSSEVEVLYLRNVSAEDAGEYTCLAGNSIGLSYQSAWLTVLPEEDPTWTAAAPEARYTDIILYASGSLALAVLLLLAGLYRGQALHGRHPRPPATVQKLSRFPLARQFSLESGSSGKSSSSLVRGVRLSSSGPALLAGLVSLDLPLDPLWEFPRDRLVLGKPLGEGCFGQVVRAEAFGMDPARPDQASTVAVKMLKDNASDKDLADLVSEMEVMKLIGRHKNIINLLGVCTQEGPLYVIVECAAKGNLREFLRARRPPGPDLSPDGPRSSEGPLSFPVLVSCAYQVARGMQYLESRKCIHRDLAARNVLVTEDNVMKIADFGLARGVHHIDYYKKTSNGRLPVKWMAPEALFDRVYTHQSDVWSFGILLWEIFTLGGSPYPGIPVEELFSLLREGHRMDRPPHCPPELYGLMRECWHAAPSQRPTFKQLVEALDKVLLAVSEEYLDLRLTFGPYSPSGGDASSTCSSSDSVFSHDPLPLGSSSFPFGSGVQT
Chain of Epidermal growth factor receptor (P00533 whole entry): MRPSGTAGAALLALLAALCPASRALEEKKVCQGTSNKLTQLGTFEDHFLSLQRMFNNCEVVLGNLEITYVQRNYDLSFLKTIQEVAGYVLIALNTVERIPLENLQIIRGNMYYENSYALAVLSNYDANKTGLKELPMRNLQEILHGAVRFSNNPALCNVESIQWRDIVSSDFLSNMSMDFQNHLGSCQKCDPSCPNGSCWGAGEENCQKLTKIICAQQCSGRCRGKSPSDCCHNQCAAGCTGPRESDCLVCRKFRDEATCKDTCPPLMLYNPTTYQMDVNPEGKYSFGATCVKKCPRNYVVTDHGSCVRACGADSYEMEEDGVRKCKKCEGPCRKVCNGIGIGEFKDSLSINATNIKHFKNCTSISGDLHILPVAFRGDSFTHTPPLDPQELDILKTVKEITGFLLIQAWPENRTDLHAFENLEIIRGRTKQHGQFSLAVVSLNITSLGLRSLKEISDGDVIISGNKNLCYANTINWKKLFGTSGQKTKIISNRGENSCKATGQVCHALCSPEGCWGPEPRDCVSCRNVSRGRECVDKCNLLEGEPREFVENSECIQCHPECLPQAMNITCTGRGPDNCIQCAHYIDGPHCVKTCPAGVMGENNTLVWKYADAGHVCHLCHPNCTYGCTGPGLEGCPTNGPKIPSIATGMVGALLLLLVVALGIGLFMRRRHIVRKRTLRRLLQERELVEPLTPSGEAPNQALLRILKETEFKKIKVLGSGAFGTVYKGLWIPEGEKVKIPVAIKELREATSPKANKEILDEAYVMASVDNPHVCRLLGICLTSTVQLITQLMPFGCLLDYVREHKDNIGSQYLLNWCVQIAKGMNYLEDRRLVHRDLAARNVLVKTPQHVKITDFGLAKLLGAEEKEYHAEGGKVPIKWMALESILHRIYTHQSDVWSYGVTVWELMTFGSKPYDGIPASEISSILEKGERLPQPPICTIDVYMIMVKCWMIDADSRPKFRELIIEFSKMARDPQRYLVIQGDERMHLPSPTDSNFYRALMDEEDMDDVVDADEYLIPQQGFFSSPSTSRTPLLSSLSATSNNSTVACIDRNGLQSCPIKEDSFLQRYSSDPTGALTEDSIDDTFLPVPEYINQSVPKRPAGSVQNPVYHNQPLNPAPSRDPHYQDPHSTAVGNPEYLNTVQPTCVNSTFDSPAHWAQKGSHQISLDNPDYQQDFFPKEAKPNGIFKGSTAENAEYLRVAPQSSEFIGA
Chain of Mitogen-activated protein kinase 1 (Homo sapiens) (P28482 whole entry, the tested form may be a part): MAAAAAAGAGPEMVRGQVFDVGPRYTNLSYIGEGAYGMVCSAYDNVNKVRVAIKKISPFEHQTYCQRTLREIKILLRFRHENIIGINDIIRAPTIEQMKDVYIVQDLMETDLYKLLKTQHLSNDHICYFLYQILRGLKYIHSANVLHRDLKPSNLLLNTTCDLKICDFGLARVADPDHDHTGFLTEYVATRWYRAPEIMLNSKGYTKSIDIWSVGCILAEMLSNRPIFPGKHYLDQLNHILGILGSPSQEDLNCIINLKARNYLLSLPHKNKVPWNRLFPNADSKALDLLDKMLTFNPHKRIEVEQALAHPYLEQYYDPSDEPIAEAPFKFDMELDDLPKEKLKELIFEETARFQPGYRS
Chain of Mitogen-activated protein kinase 9 (Homo sapiens) (P45984 whole entry, looked up, the tested form may be a part): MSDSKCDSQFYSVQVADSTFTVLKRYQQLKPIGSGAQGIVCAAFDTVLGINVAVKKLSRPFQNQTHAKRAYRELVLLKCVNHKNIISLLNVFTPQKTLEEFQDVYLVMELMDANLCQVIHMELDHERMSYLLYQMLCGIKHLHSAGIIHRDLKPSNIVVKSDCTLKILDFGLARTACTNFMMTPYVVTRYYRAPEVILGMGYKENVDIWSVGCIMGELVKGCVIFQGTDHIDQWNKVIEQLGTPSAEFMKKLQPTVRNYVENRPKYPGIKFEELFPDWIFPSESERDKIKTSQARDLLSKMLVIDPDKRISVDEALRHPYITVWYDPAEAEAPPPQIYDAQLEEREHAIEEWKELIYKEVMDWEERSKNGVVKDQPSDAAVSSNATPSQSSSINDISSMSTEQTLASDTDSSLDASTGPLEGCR
Chain of Proto-oncogene tyrosine-protein kinase Src (Homo sapiens) (P12931 2-536 limits assumed): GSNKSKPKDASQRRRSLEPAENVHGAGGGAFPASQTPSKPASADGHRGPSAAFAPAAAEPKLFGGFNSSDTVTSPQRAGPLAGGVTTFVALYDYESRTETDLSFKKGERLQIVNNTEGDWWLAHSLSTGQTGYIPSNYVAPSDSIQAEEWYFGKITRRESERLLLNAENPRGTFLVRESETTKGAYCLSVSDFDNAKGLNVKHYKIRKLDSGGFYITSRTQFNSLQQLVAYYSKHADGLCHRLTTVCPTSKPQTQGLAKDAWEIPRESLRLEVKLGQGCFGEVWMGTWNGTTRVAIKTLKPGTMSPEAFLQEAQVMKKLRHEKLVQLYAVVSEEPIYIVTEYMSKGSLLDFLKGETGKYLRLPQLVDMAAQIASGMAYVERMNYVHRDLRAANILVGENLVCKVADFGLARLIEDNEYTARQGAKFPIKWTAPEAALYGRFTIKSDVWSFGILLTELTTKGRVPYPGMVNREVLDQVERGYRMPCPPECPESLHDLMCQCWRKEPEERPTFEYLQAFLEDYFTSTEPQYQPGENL
Chain of Epidermal growth factor receptor (Homo sapiens), P00533 [T790M] (P00533 whole entry T790M): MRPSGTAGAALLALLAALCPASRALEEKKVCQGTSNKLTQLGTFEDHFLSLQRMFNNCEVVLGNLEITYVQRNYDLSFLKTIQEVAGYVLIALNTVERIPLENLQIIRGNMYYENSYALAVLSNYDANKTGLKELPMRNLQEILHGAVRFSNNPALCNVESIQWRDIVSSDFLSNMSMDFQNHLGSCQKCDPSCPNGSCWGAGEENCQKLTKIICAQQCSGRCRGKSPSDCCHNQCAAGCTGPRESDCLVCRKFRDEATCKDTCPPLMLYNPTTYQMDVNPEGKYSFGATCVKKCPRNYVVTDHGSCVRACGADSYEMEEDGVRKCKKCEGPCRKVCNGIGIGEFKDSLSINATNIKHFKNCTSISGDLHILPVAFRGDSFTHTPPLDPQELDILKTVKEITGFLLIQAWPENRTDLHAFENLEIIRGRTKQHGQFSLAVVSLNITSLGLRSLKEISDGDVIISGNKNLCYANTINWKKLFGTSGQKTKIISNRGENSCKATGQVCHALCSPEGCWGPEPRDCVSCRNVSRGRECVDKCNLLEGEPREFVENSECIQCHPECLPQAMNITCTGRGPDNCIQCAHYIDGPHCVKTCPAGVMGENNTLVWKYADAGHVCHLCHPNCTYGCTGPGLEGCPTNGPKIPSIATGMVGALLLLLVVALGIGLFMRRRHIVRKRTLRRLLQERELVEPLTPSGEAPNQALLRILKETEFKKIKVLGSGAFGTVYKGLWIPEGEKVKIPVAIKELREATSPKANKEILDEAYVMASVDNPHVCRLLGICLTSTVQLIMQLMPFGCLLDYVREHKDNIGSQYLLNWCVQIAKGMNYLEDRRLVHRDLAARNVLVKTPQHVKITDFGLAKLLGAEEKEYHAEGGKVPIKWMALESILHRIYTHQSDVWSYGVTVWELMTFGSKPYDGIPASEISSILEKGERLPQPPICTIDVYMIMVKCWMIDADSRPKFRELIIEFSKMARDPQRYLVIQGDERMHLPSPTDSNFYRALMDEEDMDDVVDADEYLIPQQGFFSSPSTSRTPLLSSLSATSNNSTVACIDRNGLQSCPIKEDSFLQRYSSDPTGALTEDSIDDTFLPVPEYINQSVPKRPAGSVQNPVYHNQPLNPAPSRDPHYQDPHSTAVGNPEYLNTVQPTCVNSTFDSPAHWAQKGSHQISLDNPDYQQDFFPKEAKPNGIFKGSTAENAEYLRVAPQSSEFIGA

For `COc1ccc(OC)c(Nc2cc(NC(=O)Nc3c(Cl)cccc3Cl)ncn2)c1`, the inhibition came to 95.8% in data set [1]; 86.8% in data set [2]; 12.3% in data set [7]; 9.1% in [8]; 0.85% in data set [9]; 45.8% in [10]. In the data set with NCI-H520, the inhibition at 10 µM worked out at 74%. Also, inhibition with HCC827 was half-maximal at 1250 nM (IC50). For the same compound, the Activity with NCI-H226 [3] is 3.5%; in the data set on NCI-H226 [4] it was 5.8%; in data set [5], “Non-Toxic”. Besides, in the data set with Mus musculus, the result was Active. Besides, the viability at 10 µM in data set [6] came to 51.5%.

In general, inhibition refers to the change of the read-out against control, counted positive when it falls. A word on the IC50: it is the midpoint of a concentration-inhibition curve.
